Assay results from paper PMC9571063 (Molecules, 2022).
Read-outs that look alike come from different tables or passages of the source.

What was measured:
RAF1 = target: T1, RAF1 (Homo sapiens, UniProt P04049); assay: KINOMEscan; format: binding; conditions: read-out: Percent Control
T1 construct: purchased Eurofins DiscoverX KINOMEscan (scanMAX 468)

SYK = target: T2, SYK (Homo sapiens, UniProt P43405); assay: KINOMEscan; format: binding; conditions: read-out: Percent Control
T2 construct: purchased Eurofins DiscoverX KINOMEscan (scanMAX 468)

JNK2 = target: T3, JNK2 (Homo sapiens, UniProt P45984); assay: KINOMEscan; format: binding; conditions: read-out: Percent Control
T3 construct: purchased Eurofins DiscoverX KINOMEscan (scanMAX 468)

ACVR2B = target: T4, ACVR2B (Homo sapiens, UniProt Q13705); assay: KINOMEscan; format: binding; conditions: read-out: Percent Control
T4 construct: purchased Eurofins DiscoverX KINOMEscan (scanMAX 468)

ABL1-phosphorylated = target: T5, ABL1-phosphorylated (Homo sapiens, UniProt P00519); assay: KINOMEscan; format: binding; conditions: read-out: Percent Control
T5 construct: purchased Eurofins DiscoverX KINOMEscan (scanMAX 468)

CDC2L2 = target: T6, CDC2L2 (Homo sapiens, UniProt Q9UQ88); assay: KINOMEscan; format: binding; conditions: read-out: Percent Control
T6 construct: purchased Eurofins DiscoverX KINOMEscan (scanMAX 468)

TTK = target: T7, TTK (Homo sapiens, UniProt P33981); assay: KINOMEscan; format: binding; conditions: read-out: Percent Control
T7 construct: purchased Eurofins DiscoverX KINOMEscan (scanMAX 468)

MET(Y1235D) = target: T8, MET(Y1235D) (Homo sapiens, UniProt P08581, Y1235D); assay: KINOMEscan; format: binding; conditions: read-out: Percent Control
T8 construct: purchased Eurofins DiscoverX KINOMEscan (scanMAX 468)

HIPK4 = target: T9, HIPK4 (Homo sapiens, UniProt Q8NE63); assay: KINOMEscan; format: binding; conditions: read-out: Percent Control
T9 construct: purchased Eurofins DiscoverX KINOMEscan (scanMAX 468)

EPHB2 = target: T10, EPHB2 (Homo sapiens, UniProt P29323); assay: KINOMEscan; format: binding; conditions: read-out: Percent Control
T10 construct: purchased Eurofins DiscoverX KINOMEscan (scanMAX 468)

GRK4 = target: T11, GRK4 (Homo sapiens, UniProt P32298); assay: KINOMEscan; format: binding; conditions: read-out: Percent Control
T11 construct: purchased Eurofins DiscoverX KINOMEscan (scanMAX 468)

NDR2 = target: T12, NDR2 (Homo sapiens, UniProt Q9Y2H1); assay: KINOMEscan; format: binding; conditions: read-out: Percent Control
T12 construct: purchased Eurofins DiscoverX KINOMEscan (scanMAX 468)

GSK3A = target: T13, GSK3A (Homo sapiens, UniProt P49840); assay: KINOMEscan; format: binding; conditions: read-out: Percent Control
T13 construct: purchased Eurofins DiscoverX KINOMEscan (scanMAX 468)

CSNK1G2 = target: T14, CSNK1G2 (Homo sapiens, UniProt P78368); assay: KINOMEscan; format: binding; conditions: read-out: Percent Control
T14 construct: purchased Eurofins DiscoverX KINOMEscan (scanMAX 468)

p38-gamma = target: T15, p38-gamma (Homo sapiens, UniProt P53778); assay: KINOMEscan; format: binding; conditions: read-out: Percent Control
T15 construct: purchased Eurofins DiscoverX KINOMEscan (scanMAX 468)

MAP4K5 = target: T16, MAP4K5 (Homo sapiens, UniProt Q9Y4K4); assay: KINOMEscan; format: binding; conditions: read-out: Percent Control
T16 construct: purchased Eurofins DiscoverX KINOMEscan (scanMAX 468)

GRK7 = target: T17, GRK7 (Homo sapiens, UniProt Q8WTQ7); assay: KINOMEscan; format: binding; conditions: read-out: Percent Control
T17 construct: purchased Eurofins DiscoverX KINOMEscan (scanMAX 468)

ABL2 = target: T18, ABL2 (Homo sapiens, UniProt P42684); assay: KINOMEscan; format: binding; conditions: read-out: Percent Control
T18 construct: purchased Eurofins DiscoverX KINOMEscan (scanMAX 468)

FES = target: T19, FES (Homo sapiens, UniProt P07332); assay: KINOMEscan; format: binding; conditions: read-out: Percent Control
T19 construct: purchased Eurofins DiscoverX KINOMEscan (scanMAX 468)

MAPKAPK2 = target: T20, MAPKAPK2 (Homo sapiens, UniProt P49137); assay: KINOMEscan; format: binding; conditions: read-out: Percent Control
T20 construct: purchased Eurofins DiscoverX KINOMEscan (scanMAX 468)

CAMK2G = target: T21, CAMK2G (Homo sapiens, UniProt Q13555); assay: KINOMEscan; format: binding; conditions: read-out: Percent Control
T21 construct: purchased Eurofins DiscoverX KINOMEscan (scanMAX 468)

[1] = target: T22, ABL1(F317L)-nonphosphorylated (Homo sapiens, UniProt P00519, F317L); assay: KINOMEscan; format: binding; conditions: read-out: Percent Control
T22 construct: purchased Eurofins DiscoverX KINOMEscan (scanMAX 468)

TLK1 = target: T23, TLK1 (Homo sapiens, UniProt Q9UKI8); assay: KINOMEscan; format: binding; conditions: read-out: Percent Control
T23 construct: purchased Eurofins DiscoverX KINOMEscan (scanMAX 468)

EGFR(L747-T751del,Sins) = assay: KINOMEscan; format: binding, human; conditions: 1 μM
CSK = target: T24, CSK (Homo sapiens, UniProt P41240); assay: KINOMEscan; format: binding; conditions: read-out: Percent Control
T24 construct: purchased Eurofins DiscoverX KINOMEscan (scanMAX 468)

[2] = target: T25, ABL1(H396P)-phosphorylated (Homo sapiens, UniProt P00519, H396P); assay: KINOMEscan; format: binding; conditions: read-out: Percent Control
T25 construct: purchased Eurofins DiscoverX KINOMEscan (scanMAX 468)

NEK9 = target: T26, NEK9 (Homo sapiens, UniProt Q8TD19); assay: KINOMEscan; format: binding; conditions: read-out: Percent Control
T26 construct: purchased Eurofins DiscoverX KINOMEscan (scanMAX 468)

MARK3 = target: T27, MARK3 (Homo sapiens, UniProt P27448); assay: KINOMEscan; format: binding; conditions: read-out: Percent Control
T27 construct: purchased Eurofins DiscoverX KINOMEscan (scanMAX 468)

STK39 = target: T28, STK39 (Homo sapiens, UniProt Q9UEW8); assay: KINOMEscan; format: binding; conditions: read-out: Percent Control
T28 construct: purchased Eurofins DiscoverX KINOMEscan (scanMAX 468)

[3] = target: T29, EGFR(L747-S752del, P753S) (Homo sapiens, UniProt P00533, DEL747-752/P753S); assay: KINOMEscan; format: binding; conditions: read-out: Percent Control
T29 construct: purchased Eurofins DiscoverX KINOMEscan (scanMAX 468)

Hs_CDK9/CyclinT = target: T30, Hs_CDK9/CyclinT (Homo sapiens, UniProt P50750); set-up: method as in ref 13 (a number printed in a supplementary file, which may have a reference list of its own: not looked up in the article's list); conditions: DB18, cited from earlier work
T30 construct: host or cells: Sf9 insect cells (baculovirus)

PKN2 = target: T31, PKN2 (Homo sapiens, UniProt Q16513); assay: KINOMEscan; format: binding; conditions: read-out: Percent Control
T31 construct: purchased Eurofins DiscoverX KINOMEscan (scanMAX 468)

LKB1 = target: T32, LKB1 (Homo sapiens, UniProt Q15831); assay: KINOMEscan; format: binding; conditions: read-out: Percent Control
T32 construct: purchased Eurofins DiscoverX KINOMEscan (scanMAX 468)

MELK = target: T33, MELK (Homo sapiens, UniProt Q14680); assay: KINOMEscan; format: binding; conditions: read-out: Percent Control
T33 construct: purchased Eurofins DiscoverX KINOMEscan (scanMAX 468)

CAMK1 = target: T34, CAMK1 (Homo sapiens, UniProt Q14012); assay: KINOMEscan; format: binding; conditions: read-out: Percent Control
T34 construct: purchased Eurofins DiscoverX KINOMEscan (scanMAX 468)

NEK5 = target: T35, NEK5 (Homo sapiens, UniProt Q6P3R8); assay: KINOMEscan; format: binding; conditions: read-out: Percent Control
T35 construct: purchased Eurofins DiscoverX KINOMEscan (scanMAX 468)

DAPK2 = target: T36, DAPK2 (Homo sapiens, UniProt Q9UIK4); assay: KINOMEscan; format: binding; conditions: read-out: Percent Control
T36 construct: purchased Eurofins DiscoverX KINOMEscan (scanMAX 468)

MST1R = target: T37, MST1R (Homo sapiens, UniProt Q04912); assay: KINOMEscan; format: binding; conditions: read-out: Percent Control
T37 construct: purchased Eurofins DiscoverX KINOMEscan (scanMAX 468)

MAP3K2 = target: T38, MAP3K2 (Homo sapiens, UniProt Q9Y2U5); assay: KINOMEscan; format: binding; conditions: read-out: Percent Control
T38 construct: purchased Eurofins DiscoverX KINOMEscan (scanMAX 468)

ITK = target: T39, ITK (Homo sapiens, UniProt Q08881); assay: KINOMEscan; format: binding; conditions: read-out: Percent Control
T39 construct: purchased Eurofins DiscoverX KINOMEscan (scanMAX 468)

DMPK2 = target: T40, DMPK2 (Homo sapiens, UniProt Q6DT37); assay: KINOMEscan; format: binding; conditions: read-out: Percent Control
T40 construct: purchased Eurofins DiscoverX KINOMEscan (scanMAX 468)

ERK2 = target: T41, ERK2 (Homo sapiens, UniProt P28482); assay: KINOMEscan; format: binding; conditions: read-out: Percent Control
T41 construct: purchased Eurofins DiscoverX KINOMEscan (scanMAX 468)

PRKG2 = target: T42, PRKG2 (Homo sapiens, UniProt Q13237); assay: KINOMEscan; format: binding; conditions: read-out: Percent Control
T42 construct: purchased Eurofins DiscoverX KINOMEscan (scanMAX 468)
T42 sequence (Q13237 whole entry): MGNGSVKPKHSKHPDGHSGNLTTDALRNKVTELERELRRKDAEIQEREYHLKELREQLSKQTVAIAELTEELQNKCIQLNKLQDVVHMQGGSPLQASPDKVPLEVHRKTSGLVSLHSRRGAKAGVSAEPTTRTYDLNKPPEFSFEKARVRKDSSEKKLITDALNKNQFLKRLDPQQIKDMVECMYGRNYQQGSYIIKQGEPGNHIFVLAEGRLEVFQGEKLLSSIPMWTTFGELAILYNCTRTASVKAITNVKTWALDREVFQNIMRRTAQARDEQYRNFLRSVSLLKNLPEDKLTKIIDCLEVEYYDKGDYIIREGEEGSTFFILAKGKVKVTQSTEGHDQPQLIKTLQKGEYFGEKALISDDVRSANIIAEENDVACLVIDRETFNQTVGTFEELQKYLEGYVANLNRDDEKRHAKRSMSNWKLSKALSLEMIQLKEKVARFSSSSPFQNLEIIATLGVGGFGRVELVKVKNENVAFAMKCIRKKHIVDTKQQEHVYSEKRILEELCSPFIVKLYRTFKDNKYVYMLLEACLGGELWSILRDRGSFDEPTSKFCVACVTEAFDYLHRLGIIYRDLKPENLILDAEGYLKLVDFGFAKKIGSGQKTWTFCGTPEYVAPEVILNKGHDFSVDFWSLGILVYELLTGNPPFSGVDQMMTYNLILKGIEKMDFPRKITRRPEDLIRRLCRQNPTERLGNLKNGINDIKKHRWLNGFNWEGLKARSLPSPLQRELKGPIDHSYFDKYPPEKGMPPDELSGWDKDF

T30 sequence (P50750 whole entry): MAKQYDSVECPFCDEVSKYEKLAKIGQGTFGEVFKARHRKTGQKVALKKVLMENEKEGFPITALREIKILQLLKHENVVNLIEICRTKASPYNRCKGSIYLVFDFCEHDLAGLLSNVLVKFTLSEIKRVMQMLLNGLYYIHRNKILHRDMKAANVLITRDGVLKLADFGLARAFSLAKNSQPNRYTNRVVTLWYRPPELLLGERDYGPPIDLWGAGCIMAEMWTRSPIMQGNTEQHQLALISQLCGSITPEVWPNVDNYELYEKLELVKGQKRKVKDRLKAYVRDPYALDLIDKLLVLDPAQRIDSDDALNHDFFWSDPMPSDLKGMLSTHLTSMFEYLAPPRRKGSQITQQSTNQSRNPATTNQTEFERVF
T30 sequence (O60563 whole entry partner): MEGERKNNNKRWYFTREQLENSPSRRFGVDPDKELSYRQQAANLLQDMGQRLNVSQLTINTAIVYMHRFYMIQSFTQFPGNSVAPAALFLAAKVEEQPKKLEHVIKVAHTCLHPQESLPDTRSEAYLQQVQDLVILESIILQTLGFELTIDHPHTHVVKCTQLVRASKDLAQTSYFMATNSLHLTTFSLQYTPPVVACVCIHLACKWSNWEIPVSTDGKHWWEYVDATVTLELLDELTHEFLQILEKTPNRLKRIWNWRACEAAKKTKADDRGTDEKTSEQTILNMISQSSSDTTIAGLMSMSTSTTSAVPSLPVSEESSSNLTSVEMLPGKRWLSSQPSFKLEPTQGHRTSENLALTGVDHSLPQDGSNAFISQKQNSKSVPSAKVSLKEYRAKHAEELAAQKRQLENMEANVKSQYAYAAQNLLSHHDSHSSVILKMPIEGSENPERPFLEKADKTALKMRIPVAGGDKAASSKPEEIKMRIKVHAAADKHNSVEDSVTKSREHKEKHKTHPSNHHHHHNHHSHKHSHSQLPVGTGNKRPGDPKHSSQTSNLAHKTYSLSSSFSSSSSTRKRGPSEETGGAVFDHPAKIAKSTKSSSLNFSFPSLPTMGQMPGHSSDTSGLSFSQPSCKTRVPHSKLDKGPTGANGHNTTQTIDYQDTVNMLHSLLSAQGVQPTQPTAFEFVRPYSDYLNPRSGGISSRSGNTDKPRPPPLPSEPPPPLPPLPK
T4 sequence (Q13705 19-512): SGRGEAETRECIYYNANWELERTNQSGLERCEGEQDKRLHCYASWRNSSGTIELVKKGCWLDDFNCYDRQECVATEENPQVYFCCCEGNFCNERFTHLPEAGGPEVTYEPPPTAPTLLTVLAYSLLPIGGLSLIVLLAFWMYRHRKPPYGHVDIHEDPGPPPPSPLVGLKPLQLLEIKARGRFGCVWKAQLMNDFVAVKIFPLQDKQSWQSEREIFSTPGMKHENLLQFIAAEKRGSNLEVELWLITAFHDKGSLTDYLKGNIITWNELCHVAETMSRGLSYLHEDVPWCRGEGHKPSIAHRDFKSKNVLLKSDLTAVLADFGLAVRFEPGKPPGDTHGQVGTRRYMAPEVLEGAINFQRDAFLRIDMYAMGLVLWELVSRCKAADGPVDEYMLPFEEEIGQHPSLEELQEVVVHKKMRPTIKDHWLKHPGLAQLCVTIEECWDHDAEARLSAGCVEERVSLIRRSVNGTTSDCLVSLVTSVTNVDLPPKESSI
T6 sequence (Q9UQ88 whole entry): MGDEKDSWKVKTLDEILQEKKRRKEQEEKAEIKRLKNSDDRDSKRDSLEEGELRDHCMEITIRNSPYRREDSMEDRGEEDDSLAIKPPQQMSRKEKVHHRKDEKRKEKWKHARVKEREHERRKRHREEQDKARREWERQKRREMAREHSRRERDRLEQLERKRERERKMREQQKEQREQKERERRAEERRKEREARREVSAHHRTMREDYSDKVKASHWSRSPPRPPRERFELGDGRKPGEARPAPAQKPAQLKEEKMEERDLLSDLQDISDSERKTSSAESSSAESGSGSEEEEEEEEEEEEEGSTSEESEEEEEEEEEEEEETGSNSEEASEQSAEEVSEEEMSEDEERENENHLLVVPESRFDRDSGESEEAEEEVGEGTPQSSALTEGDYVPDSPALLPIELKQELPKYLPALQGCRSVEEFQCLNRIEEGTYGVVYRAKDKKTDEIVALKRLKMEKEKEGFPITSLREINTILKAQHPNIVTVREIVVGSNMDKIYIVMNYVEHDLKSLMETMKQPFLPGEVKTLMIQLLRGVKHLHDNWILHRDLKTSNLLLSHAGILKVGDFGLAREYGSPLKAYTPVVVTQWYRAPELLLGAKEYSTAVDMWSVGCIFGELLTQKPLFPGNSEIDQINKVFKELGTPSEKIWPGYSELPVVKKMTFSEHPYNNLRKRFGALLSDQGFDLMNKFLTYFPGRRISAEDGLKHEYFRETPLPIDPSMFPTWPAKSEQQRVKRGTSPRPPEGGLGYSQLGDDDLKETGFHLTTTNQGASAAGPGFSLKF
T34 sequence (Q14012 whole entry): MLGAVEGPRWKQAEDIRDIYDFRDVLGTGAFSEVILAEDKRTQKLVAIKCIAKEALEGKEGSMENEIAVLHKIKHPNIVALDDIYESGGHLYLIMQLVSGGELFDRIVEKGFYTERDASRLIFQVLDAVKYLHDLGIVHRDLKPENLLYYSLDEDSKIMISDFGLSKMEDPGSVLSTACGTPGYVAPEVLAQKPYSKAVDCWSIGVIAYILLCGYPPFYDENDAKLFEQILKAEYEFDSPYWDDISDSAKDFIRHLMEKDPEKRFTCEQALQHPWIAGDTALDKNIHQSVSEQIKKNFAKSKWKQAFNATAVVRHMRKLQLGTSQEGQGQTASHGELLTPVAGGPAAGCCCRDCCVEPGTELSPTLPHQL
T17 sequence (Q8WTQ7 whole entry): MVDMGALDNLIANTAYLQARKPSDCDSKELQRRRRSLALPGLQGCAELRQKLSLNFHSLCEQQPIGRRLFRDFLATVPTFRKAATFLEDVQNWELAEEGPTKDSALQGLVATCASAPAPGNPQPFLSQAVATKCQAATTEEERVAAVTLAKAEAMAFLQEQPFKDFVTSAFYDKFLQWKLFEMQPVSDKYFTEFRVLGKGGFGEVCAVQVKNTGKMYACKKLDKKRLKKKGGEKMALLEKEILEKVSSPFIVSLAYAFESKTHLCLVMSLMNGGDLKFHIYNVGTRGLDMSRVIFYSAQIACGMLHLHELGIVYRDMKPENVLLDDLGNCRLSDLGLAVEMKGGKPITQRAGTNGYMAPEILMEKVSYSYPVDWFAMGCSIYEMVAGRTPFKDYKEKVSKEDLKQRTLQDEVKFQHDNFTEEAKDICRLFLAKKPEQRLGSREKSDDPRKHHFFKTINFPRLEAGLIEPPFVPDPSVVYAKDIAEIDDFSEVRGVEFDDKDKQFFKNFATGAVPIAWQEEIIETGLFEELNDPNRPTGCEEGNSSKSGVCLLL
T23 sequence (Q9UKI8 whole entry): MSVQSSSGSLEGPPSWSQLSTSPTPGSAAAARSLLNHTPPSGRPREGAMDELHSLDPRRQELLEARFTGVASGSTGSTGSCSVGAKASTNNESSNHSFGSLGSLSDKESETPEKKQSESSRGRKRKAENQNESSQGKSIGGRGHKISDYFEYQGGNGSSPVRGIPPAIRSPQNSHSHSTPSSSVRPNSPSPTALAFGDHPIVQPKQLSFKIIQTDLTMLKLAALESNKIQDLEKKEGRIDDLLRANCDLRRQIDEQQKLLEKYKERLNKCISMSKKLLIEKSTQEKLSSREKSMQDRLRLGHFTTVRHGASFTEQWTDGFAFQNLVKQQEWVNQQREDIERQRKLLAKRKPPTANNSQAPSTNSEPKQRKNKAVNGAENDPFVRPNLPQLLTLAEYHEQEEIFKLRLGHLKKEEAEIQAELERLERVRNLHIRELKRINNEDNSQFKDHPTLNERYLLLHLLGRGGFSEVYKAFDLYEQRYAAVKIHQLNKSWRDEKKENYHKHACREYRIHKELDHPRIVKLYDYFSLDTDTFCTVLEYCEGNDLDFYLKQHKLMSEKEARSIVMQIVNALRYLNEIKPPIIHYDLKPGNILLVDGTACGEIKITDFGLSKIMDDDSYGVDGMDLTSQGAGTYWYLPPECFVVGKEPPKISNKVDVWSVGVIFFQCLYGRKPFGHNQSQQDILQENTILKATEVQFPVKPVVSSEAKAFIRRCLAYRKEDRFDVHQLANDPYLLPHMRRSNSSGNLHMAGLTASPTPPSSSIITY

Compound: Cc1ccc(-n2cc(COc3cccc4cnc(Nc5cccc(Cl)c5)nc34)nn2)c([N+](=O)[O-])c1 [DB18]
- remaining binding at 1 µM (RAF1): 100%
- remaining binding at 1 µM (SYK): 97%
- remaining binding at 1 µM (JNK2): 96%
- remaining binding at 1 µM (ACVR2B): 100%
- remaining binding at 1 µM (ABL1-phosphorylated): 98%
- remaining binding at 1 µM (CDC2L2): 100%
- remaining binding at 1 µM (TTK): 86%
- remaining binding at 1 µM (MET(Y1235D)): 100%
- remaining binding at 1 µM (HIPK4): 17%
- remaining binding at 1 µM (EPHB2): 100%
- remaining binding at 1 µM (GRK4): 100%
- remaining binding at 1 µM (NDR2): 95%
- remaining binding at 1 µM (GSK3A): 100%
- remaining binding at 1 µM (CSNK1G2): 90%
- remaining binding at 1 µM (p38-gamma): 100%
- remaining binding at 1 µM (MAP4K5): 100%
- remaining binding at 1 µM (GRK7): 100%
- remaining binding at 1 µM (ABL2): 100%
- remaining binding at 1 µM (FES): 100%
- remaining binding at 1 µM (MAPKAPK2): 100%
- remaining binding at 1 µM (CAMK2G): 100%
- remaining binding at 1 µM [1]: 100%
- remaining binding at 1 µM (TLK1): 100%
- Percent Control (EGFR(L747-T751del,Sins)): 100 % Ctrl
- remaining binding at 1 µM (CSK): 100%
- remaining binding at 1 µM [2]: 98%
- remaining binding at 1 µM (NEK9): 100%
- remaining binding at 1 µM (MARK3): 100%
- remaining binding at 1 µM (STK39): 97%
- remaining binding at 1 µM [3]: 83%
- % of residual activity Hs_CDK9/CyclinT (Hs_CDK9/CyclinT; 1 µM): 90%
- % of residual activity Hs_CDK9/CyclinT (Hs_CDK9/CyclinT; 10 µM): 54%
- remaining binding at 1 µM (PKN2): 100%
- remaining binding at 1 µM (LKB1): 100%
- remaining binding at 1 µM (MELK): 100%
- remaining binding at 1 µM (CAMK1): 100%
- remaining binding at 1 µM (NEK5): 100%
- remaining binding at 1 µM (DAPK2): 100%
- remaining binding at 1 µM (MST1R): 100%
- remaining binding at 1 µM (MAP3K2): 97%
- remaining binding at 1 µM (ITK): 100%
- remaining binding at 1 µM (DMPK2): 100%
- remaining binding at 1 µM (ERK2): 100%
- remaining binding at 1 µM (PRKG2): 100%
